According to ChEMBL document CHEMBL5137118, “Zamamiphidins B and C, Manzamine-Related Alkaloids from an Amphimedon sp. Marine Sponge Collected in Okinawa” (J Nat Prod, 2022):
pIC50: −log10 of the molar value.

Tests used:
KB = test: Cytotoxicity against human KB cells assessed as inhibition of cell growth; type: functional, cell-based
L1210 = test: Cytotoxicity against mouse L1210 cells assessed as inhibition of cell growth; type: functional, cell-based
Acetylcholinesterase = Acetylcholinesterase (Electrophorus electricus, UniProt O42275); test: Inhibition of electric eel AChE using acetylthiocholine iodide as substrate preincubated for 30 mins followed by substrate addition and measured after 5 mins by DTNB-reagent based Ellman's method
Sequence of Acetylcholinesterase (O42275 whole entry): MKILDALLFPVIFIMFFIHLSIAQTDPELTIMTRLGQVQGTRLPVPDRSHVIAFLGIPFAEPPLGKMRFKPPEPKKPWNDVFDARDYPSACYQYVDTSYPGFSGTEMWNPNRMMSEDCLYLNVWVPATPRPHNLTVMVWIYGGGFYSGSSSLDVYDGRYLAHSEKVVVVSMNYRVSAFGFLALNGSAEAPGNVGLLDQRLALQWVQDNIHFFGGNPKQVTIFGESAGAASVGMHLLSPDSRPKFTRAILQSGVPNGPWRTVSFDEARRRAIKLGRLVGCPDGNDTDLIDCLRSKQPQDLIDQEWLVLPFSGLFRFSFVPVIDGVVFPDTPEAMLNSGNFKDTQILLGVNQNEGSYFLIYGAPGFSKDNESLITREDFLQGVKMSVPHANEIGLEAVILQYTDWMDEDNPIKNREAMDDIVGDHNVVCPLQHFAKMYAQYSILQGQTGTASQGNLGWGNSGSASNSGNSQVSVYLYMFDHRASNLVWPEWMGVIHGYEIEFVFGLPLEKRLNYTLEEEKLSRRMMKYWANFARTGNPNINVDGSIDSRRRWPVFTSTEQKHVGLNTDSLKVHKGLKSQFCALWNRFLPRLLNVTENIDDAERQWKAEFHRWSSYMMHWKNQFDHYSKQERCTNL

Structure (SMILES) | IC50 (KB) [µg/mL] | IC50 (L1210) [µg/mL] | pIC50 (Acetylcholinesterase)
O[C@H]1CCCC[N+]23C[C@@H]4C=C5CC/C=C\CCCCN6CC[C@@H]4[C@](CC[C@H]12)(C6)[C@H]53 | > 10 | > 10 | 3.46
O[C@@H]1CCCC[N+]23C[C@@H]4C=C5CC/C=C\CCCCN6CC[C@@H]4[C@](CC[C@H]12)(C6)[C@H]53 | > 10 | > 10 | 3.33
